Measured values: patent US10662193B2, “Carbazole and carboline compounds for use in the diagnosis, treatment, alleviation or prevention of disorders associated with amyloid or amyloid-like proteins” (AC IMMUNE SA, priority 2014, dated 2020)

Biological target: Tau enriched paired helical filaments (PHF) from human Alzheimer's disease (AD) brains (Homo sapiens, UniProt P10636)
Experiment: Assay 3: backscattering interferometry, dissociation constants (Kd)
Assay type: binding
Settings: PHF batch 6 (pooled frontal cortex, 25 AD patients); read-out: [Kd] on PHF batch 6
From the text: Assay 3 (Backscattering Interferometry):
Determination of Dissociation Constants (Kd) of Compounds of this Invention
Enrichment of Paired Helical Filaments (PHF's) from Human Alzheimer's Disease Brains
For backscattering interferometry, Tau enriched paired helical filaments (PHF) from human Alzheimer's disease (AD) brains were used as a target. Due to the limited availability of tissues, to determine dissociation constants (Kd) of compounds of this invention to the target, two different batches of enriched PHF were used. These batches are identified as batch 6 and 7 and were prepared as follows.
PHF batch number 6 was prepared starting from 25 g frontal cortical tissue from post-mortem brains of 25 Alzheimer's disease (AD) patients which were obtained from the London Tissue Bank. The mean age at death for the AD patients was 76 years (48% females). Brain samples were characterized for Braak disease stage (Braak and Braak, 1991), with most donors displaying a stage VI. The postmortem interval between death and brain dissection was between 6 and 65 h. Human brain homogenates were prepared by SB Drug Discovery (Glasgow, Scotland, UK) from the post-mortem cortical tissue of the 25 patients). Each tissue (1 g) was homogenized with a Dounce glass homogenizer in 1.5 mL 100 mM 2-(N-morpholino) ethane-sulfonic acid (MES) pH 6.8, 0.75 M NaCl, 1 mM EGTA, 0.5 mM MgSO4, 2 mM DTT containing protease inhibitors (Complete; Roche 11697498001). For each sample, two aliquots containing 0.5 g brain homogenates in 0.75 mL were shipped to AC Immune SA on dry ice and stored at −80° C. For the enrichment of PHF, 1 aliquot per donor corresponding to total 12.5 g of brain tissue were thawed on ice and then incubated at 4° C. for 20 min to depolymerize any residual microtubules. All samples were then pooled and transferred to three polycarbonate centrifuge bottles (16×76 mm; Beckman 355603).
PHF batch number 7 was prepared starting from 32 g of parietal cortex tissue from post-mortem brain of one Alzheimer's disease (AD) patient was obtained from an external provider (Tissue Solution). The patient was a person who died for end stage AD. The brain sample was collected 5 h post-mortem and characterized for Braak disease stage (Braak and Braak, 1991) as stage VI. The method used for the PHF enrichment was modified from published procedures (Jicha et al., 1997; Rostagno and Ghiso, 2009). Around 16 g of the AD human brain was thawed on ice and homogenized with 50 ml of homogenization buffer [0.75 M NaCl in RAB buffer (100 mM 2-(N-morpholino) ethanesulfonic acid (MES), 1 mM EGTA, 0.5 mM MgSO4, 2 mM DTT, pH 6.8) supplemented with protease inhibitors (Complete; Roche 11697498001)] in a glass Dounce homogenizer. The homogenate was then incubated at 4° C. for 20 min to let depolymerize any residual microtubules, before being transferred into polycarbonate centrifuge bottles (16×76 mm; Beckman 355603). For both purifications, brain homogenates were then centrifuged at 11,000 g (12,700 RPM) in an ultracentrifuge (Beckman, XL100K) for 20 min at 4° C. using the pre-cooled 70.1 rotor (Beckman, 342184). Pellets were kept on ice. Supernatants were pooled into polycarbonate bottles and centrifuged again at 100,000 g (38,000 RPM) for 1 h at 4° C. in the 70.1 Ti rotor to isolate PHF-rich pellets, whereas soluble Tau remained in the supernatants. The pellets from the first and second centrifugations were resuspended in 120 mL of extraction buffer [10 mM Tris-HCl pH 7.4, 10% sucrose, 0.85 M NaCl, 1% protease inhibitor (Calbiochem 539131), 1 mM EGTA, 1% phosphatase inhibitor (Sigma P5726 and P0044)]. The solution was then transferred into polycarbonate centrifuge bottles (16×76 mm; Beckman 355603) and centrifuged at 15,000 g (14,800 RPM) in an ultracentrifuge (Beckman, XL100K) for 20 min at 4° C. using the 70.1 Ti rotor. […]

Sequence of Tau enriched paired helical filaments (PHF) from human Alzheimer's disease (AD) brains (P10636 623-708 limits assumed): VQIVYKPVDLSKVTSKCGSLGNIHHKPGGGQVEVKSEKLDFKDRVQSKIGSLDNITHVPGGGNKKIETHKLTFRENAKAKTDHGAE

Structure (SMILES)	Kd
Cn1c2ccncc2c2ccc(Nc3ccc(F)c(F)c3)nc21 [Example 2]	33 ± 5 nM
Cn1c2ccncc2c2ccc(Nc3cccc(OCCF)c3)nc21 [Example 8]	19 ± 3 nM
